PMC10778758, “Dithioethanol (DTE)-Conjugated Deoxyribose Cyclic Dinucleotide Prodrugs (DTE-dCDNs) as STING Agonist” (International Journal of Molecular Sciences, 2023)
Where “and” joins values, the source holds several entries; their conditions need not be identical. Identical values can stand only once.

Tests used:
THP1-Lucia cells = test: THP1-Lucia cell-based luciferase reporter assay
Procedure: THP1-Lucia cell-based reporter assay. THP1-Lucia cells were seeded into a 24-well plate at a density of 5 × 10^4 cells/well. […] Finally, the medium was collected to determine the luciferase activity using QUANTI-Luc (InvivoGen, San Diego, CA, USA) according to the manufacturer′s instruction to calculate the EC50 values of the tested compounds. The results are expressed as the mean ± SD from three independent experiments. Emax values were normalized to the response induced by 2′,3′-cGAMP in each assay and expressed as a mean percentage ± SD from three independent experiments. The THP1-Lucia cell line was obtained from Prof. Junmin Quan from Peking University (Beijing, China).
Figure 5 The luciferase-based assay in the THP1-Lucia reporter cell line. (a) EC50 values represent the mean (±SD) of three independent experiments. (b) Emax values represent the mean (±SD) of three independent experiments.

CT-26 cells = test: RT-qPCR of IFN-β mRNA in CT-26 cells; assay type: cell-based; conditions: CT-26, prodrug 9 and ADU-S100 10 μM, CDNs 100 μM, 4 h
Procedure: Real-time quantitative PCR (RT-qPCR). The mRNA expression levels of diverse cytokines were measured using quantitative RT-PCR (RT-qPCR) assays. THP-1 cells or CT26 cells were incubated with the compounds for 4 h, subsequently harvested for RNA isolation according to the manufacturer’s instructions of RNApure Tissue&Cell Kit (DNase I) (CWBIO, Cambridge, MA, USA catalogue no. CW0560S). Next, 1 μg RNA was reversely transcribed to cDNA by TransScript All-in-One First-Strand cDNA Synthesis SuperMix for qPCR (One-Step gDNA Removal) (TransGen, Beijing, China). To examine the mRNA levels, real-time PCR was performed in a CFX96 Real-Time PCR system (Bio-RAD, Hercules, CA, USA) using PerfectStart Green qPCR Super Mix (TransGen) and primers (Sangon Biotech, Shanghai, China). The expression level was calculated according to the formula (2^−∆∆Ct) using the GAPDH or β-actin as the internal reference gene and the relative gene expression fold was normalized to the DMSO-treated cells. The THP-1 and CT26 cell lines were obtained from American Type Culture Collection (ATCC, Manassas, VA, USA). […]
expression levels of IFN-β were assessed by real-time quantitative PCR (qPCR) under the treatment of prodrug 9 (10 μM), 3′,3′-c-di-dAMP (100 μM), 2′,3′-cGAMP (100 μM) and ADU-S100 (10 μM) for 4 h.
Figure S3. […]
levels of IFN-β were assessed by an enzyme-linked immunosorbent assay (ELISA). […]

fold activity (EC50) vs 3′,3′-c-di-dAMP (THP1-Lucia cells): ~43 fold | fold activity (EC50) vs ADU-S100 (THP1-Lucia cells): ~3.0 fold and 3 fold | EC50 (THP1-Lucia cells; 24 h): 0.96 µM
SMILES: Nc1ncnc2c1ncn2C1CC2OP(=O)(OCCSSc3ccccn3)OCC3OC(n4cnc5c(N)ncnc54)CC3OP(=O)(OCCSSc3ccccn3)OCC2O1 (stereo not shown) [prodrug 9]
maximum activation fold (Emax) relative to 2′,3′-cGAMP (THP1-Lucia cells): approximately 1.8 fold | maximum activation fold (Emax) relative to 3′,3′-c-di-dAMP (THP1-Lucia cells): ~1.9 fold | maximum activation fold (Emax) relative to ADU-S100 (THP1-Lucia cells): ~1.4 fold | induction of IFN-β transcription in CT-26 cells (CT-26 cells): did not
